These are literature values, as cited in patent US20080161413A1, “Agent for increasing adiponectin in blood” (YAMAHA HATSUDOKI KABUSHIKI KAISHA, priority 2006, published 2008).

The data set has as its system adiponectin. Particulars: obese/diabetic mice.

On to `COc1cc(C(C)=O)ccc1O` [apocynin], for which the production of adiponectin entry was “increases”.
